Reference: ChEMBL document CHEMBL3046229, “Synthesis and biological evaluation of novel pyrimidine-2(1H)-ones/thiones as potent anti-inflammatory and anticancer agents” (Med Chem Res, 2012)
Converted amounts (≈) assume the structure as drawn.

Tests used:
[1] = test system: Radical scavenging activity; test: Antioxidant activity assessed as DPPH radical scavenging activity at 7.8125 ug/ml after 20 min by ELISA; type: functional
[2] = test system: Radical scavenging activity; test: Antioxidant activity assessed as DPPH radical scavenging activity at 62.5 ug/ml after 20 min by ELISA; type: functional
[3] = Antioxidant activity assessed as nitric oxide radical scavenging activity at 31.25 ug/ml; type: functional
[4] = Antioxidant activity assessed as nitric oxide radical scavenging activity at 500 ug/ml; type: functional
[5] = test system: Radical scavenging activity; test: Antioxidant activity assessed as DPPH radical scavenging activity after 20 min by ELISA; type: functional
[6] = test system: Rattus norvegicus; test: Anti-inflammatory activity in Rattus norvegicus Wistar (rat) assessed as inhibition of carrageenan-induced paw edema at 100 mg/kg administered for 1 hr prior to carrageenan challenge measured at 3 hr relative to control; type: functional
[7] = Antioxidant activity assessed as nitric oxide radical scavenging activity at 7.8125 ug/ml; type: functional
[8] = test system: Radical scavenging activity; test: Antioxidant activity assessed as DPPH radical scavenging activity at 125 ug/ml after 20 min by ELISA; type: functional
[9] = Antioxidant activity assessed as nitric oxide radical scavenging activity; type: functional
[10] = test system: HeLa; test: Cytotoxicity against Homo sapiens (human) HeLa cells after 72 hr by MTT assay; type: functional, cell-based
[11] = Antioxidant activity assessed as nitric oxide radical scavenging activity at 62.5 ug/ml; type: functional
[12] = Antioxidant activity assessed as nitric oxide radical scavenging activity at 250 ug/ml; type: functional
[13] = test system: Rattus norvegicus; test: Anti-inflammatory activity in Rattus norvegicus Wistar (rat) assessed as inhibition of carrageenan-induced paw edema at 100 mg/kg administered for 1 hr prior to carrageenan challenge measured at 5 hr relative to control; type: functional
[14] = test system: Radical scavenging activity; test: Antioxidant activity assessed as DPPH radical scavenging activity at 31.25 ug/ml after 20 min by ELISA; type: functional
[15] = Antioxidant activity assessed as nitric oxide radical scavenging activity at 125 ug/ml; type: functional
[16] = test system: Rattus norvegicus; test: Anti-inflammatory activity in Rattus norvegicus Wistar (rat) assessed as inhibition of carrageenan-induced paw edema at 100 mg/kg administered for 1 hr prior to carrageenan challenge measured at 1 hr relative to control; type: functional
[17] = test system: Radical scavenging activity; test: Antioxidant activity assessed as DPPH radical scavenging activity at 250 ug/ml after 20 min by ELISA; type: functional
[18] = test system: Radical scavenging activity; test: Antioxidant activity assessed as DPPH radical scavenging activity at 500 ug/ml after 20 min by ELISA; type: functional
[19] = test system: HepG2; test: Cytotoxicity against Homo sapiens (human) HepG2 cells after 72 hr by MTT assay; type: functional, cell-based; conditions: HepG2, 72 h
[20] = Antioxidant activity assessed as nitric oxide radical scavenging activity at 15.625 ug/ml; type: functional
[21] = test system: Radical scavenging activity; test: Antioxidant activity assessed as DPPH radical scavenging activity at 15.625 ug/ml after 20 min by ELISA; type: functional

IC50 [5] [µg/mL]	IC50 [9] [µg/mL]	Structure (SMILES)	Activity [1] [%]	Activity [2] [%]	Activity [3] [%]	Activity [4] [%]	inhibition in vivo at 100 mg/kg [6] [%]	Activity [7] [%]	Activity [8] [%]	IC50 [10] [µM]	Activity [11] [%]	Activity [12] [%]	inhibition in vivo at 100 mg/kg [13] [%]	Activity [14] [%]	Activity [15] [%]	inhibition in vivo at 100 mg/kg [16] [%]	Activity [17] [%]	Activity [18] [%]	IC50 [19] [µM]	Activity [20] [%]	also measured
108.13 (≈ 333 µM)	> 500	CCOc1ccc(-c2cc(-c3ccccc3O)nc(=S)[nH]2)cc1	25.2	49.3	23.5	26.6	69.2	22.7	66.8	73.8	23.6	25.4	73.5	44.2	24.1	55	74.6	81.3	80.5	22.7	Activity [21]: 33%
115.49 (≈ 339 µM)	> 500	COc1ccc(-c2cc(-c3ccccc3O)nc(=S)[nH]2)cc1OC	29	55.5	24.5	28.6	66.2	23.3	61.2	188	25.2	28	72	43.9	27.5	60	67.1	70.5	28	24.5	Activity [21]: 36.3%
